Experimental data taken from ChEMBL document CHEMBL1134078, “Structure-based design, synthesis and SAR of a novel series of thiopheneamidine urokinase plasminogen activator inhibitors” (Bioorg Med Chem Lett, 2001).
Each block holds one compound with its values, some of them ahead of it.

Legend:
[1] = target: Urokinase-type plasminogen activator (Homo sapiens, UniProt P00749)
[2] = target: Tissue-type plasminogen activator (Homo sapiens, UniProt P00750); test: Inhibitory activity against tissue plasminogen activator
Sequence of Tissue-type plasminogen activator (P00750 whole entry): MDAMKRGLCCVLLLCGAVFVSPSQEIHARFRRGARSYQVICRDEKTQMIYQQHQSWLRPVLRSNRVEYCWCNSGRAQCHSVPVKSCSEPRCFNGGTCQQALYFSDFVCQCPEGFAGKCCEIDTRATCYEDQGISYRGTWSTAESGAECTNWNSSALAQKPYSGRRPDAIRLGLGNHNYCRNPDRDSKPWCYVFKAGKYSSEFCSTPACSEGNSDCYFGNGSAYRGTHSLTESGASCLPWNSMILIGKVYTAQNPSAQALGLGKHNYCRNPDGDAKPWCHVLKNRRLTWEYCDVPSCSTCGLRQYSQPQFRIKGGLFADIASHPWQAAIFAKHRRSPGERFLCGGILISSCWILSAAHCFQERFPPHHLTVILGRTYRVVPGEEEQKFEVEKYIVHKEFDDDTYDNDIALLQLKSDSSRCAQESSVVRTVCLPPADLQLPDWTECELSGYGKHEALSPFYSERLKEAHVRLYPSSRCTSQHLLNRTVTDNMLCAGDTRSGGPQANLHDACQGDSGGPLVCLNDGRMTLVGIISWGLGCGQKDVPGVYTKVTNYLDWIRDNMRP

Plasminogen = Plasminogen (Homo sapiens, UniProt P00747); test: Inhibitory activity against plasmin
Sequence of Plasminogen (P00747 97-580 limits assumed): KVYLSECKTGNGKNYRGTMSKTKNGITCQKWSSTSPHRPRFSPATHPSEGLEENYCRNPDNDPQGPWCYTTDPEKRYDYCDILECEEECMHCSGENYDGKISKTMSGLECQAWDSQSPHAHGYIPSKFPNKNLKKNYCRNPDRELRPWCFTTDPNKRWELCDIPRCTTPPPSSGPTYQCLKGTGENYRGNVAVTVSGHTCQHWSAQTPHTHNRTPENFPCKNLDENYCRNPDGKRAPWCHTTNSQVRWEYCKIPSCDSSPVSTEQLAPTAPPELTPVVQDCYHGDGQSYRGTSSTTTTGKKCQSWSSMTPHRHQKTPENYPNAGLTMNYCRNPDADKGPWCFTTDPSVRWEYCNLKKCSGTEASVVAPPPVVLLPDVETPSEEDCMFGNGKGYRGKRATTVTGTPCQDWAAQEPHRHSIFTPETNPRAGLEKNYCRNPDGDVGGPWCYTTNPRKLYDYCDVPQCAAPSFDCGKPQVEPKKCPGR
Sequence of Plasminogen (P00747 581-810 limits assumed): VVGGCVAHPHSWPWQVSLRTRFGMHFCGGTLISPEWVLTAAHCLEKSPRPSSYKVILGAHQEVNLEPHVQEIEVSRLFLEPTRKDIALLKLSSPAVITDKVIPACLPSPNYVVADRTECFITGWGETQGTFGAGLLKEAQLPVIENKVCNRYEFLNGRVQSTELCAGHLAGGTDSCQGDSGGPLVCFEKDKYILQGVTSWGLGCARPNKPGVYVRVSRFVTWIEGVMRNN

Prothrombin = Prothrombin (Homo sapiens, UniProt P00734); test: Inhibitory activity against Thrombin (no observable inhibition at this screening concentration)
Serine protease 1 = Serine protease 1 (Homo sapiens, UniProt P07477); test: Inhibitory activity against Trypsin
Sequence of Serine protease 1 (P07477 whole entry): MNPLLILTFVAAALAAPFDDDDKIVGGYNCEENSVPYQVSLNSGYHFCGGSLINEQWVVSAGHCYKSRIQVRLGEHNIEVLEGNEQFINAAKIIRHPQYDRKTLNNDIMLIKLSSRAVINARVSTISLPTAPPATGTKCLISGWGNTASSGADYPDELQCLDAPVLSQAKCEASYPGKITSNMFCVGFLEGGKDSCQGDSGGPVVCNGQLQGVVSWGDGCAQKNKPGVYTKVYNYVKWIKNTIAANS

SMILES: CSc1sc(C(=N)N)cc1-c1nc(-c2ccccc2)c(-c2ccccc2)s1
- Ki [1]: 982 µM

SMILES: CSc1sc(C(=N)N)cc1-c1cccc(-c2ccccc2)c1
- Ki [1]: > 34 µM

SMILES: CSc1sc(C(=N)N)cc1-c1cccc(-c2ccccc2)n1
- Ki [1]: > 28 µM

SMILES: CSc1sc(C(=N)N)cc1-c1ccccc1
- Ki [1]: 0.6 µM

SMILES: CSc1sc(C(=N)N)cc1-c1nc(C2CCCCC2)cs1
- Ki [1]: 641 µM

SMILES: CSc1sc(C(=N)N)cc1-c1nc(-c2ccc(Cl)cc2Cl)cs1
- Ki [1]: 287 µM

SMILES: CSc1sc(C(=N)N)cc1-c1nc(C)cs1
- Ki [1]: 815 µM

SMILES: CSc1sc(C(=N)N)cc1-c1nc(-c2cccc(Br)c2)cs1
- Ki [1]: 442 µM

SMILES: COc1ccc(-c2csc(-c3cc(C(=N)N)sc3SC)n2)cc1
- Ki [1]: 327 µM

SMILES: CSc1sc(C(=N)N)cc1-c1nc(-c2cccc(C)c2)cs1
- Ki [1]: 546 µM

SMILES: CSc1sc(C(=N)N)cc1-c1nc(-c2ccccc2C)cs1
- Ki [1]: 277 µM

SMILES: CSc1sc(C(=N)N)cc1-c1nc(-c2ccc([N+](=O)[O-])cc2)cs1
- Ki [1]: 270 µM

SMILES: CSc1sc(C(=N)N)cc1-c1nc(-c2ccc(S(=O)(=O)Nc3ccc(C)cc3)cc2)cs1
- Ki [1]: 272 µM

SMILES: CSc1sc(C(=N)N)cc1-c1nc(-c2ccccc2)c(C)s1
- Ki [1]: 305 µM

SMILES: CSc1sc(C(=N)N)cc1-c1nc(-c2ccc(-c3ccccc3)cc2)cs1
- Ki [1]: 1740 µM

Further compounds by falling Ki [1], results first:

- Ki [1]: 178 µM
SMILES: CSc1sc(C(=N)N)cc1-c1nc(COc2ccccc2)cs1

- Ki [1]: 164 µM
SMILES: CSc1sc(C(=N)N)cc1-c1nc(-c2cnccc2Cl)cs1

- Ki [1]: 161 µM
SMILES: CSc1sc(C(=N)N)cc1-c1nc(-c2ccc(Cl)c([N+](=O)[O-])c2)cs1

- Ki [1]: 154 µM
SMILES: CSc1sc(C(=N)N)cc1-c1nc(-c2cccnc2Cl)cs1

- Ki [1]: 152 µM
SMILES: COc1ccc(-c2csc(-c3cc(C(=N)N)sc3SC)n2)c(OC)c1

- Ki [1]: 145 µM
SMILES: CSc1sc(C(=N)N)cc1-c1nc(-c2ccc3c(c2)CCCC3)cs1

- Ki [1]: 141 µM
SMILES: CSc1sc(C(=N)N)cc1-c1nc(-c2csc3ccccc23)cs1

- Ki [1]: 138 µM
SMILES: CSc1sc(C(=N)N)cc1-c1nc(-c2ccc3ccccc3c2)cs1

- Ki [1]: 130 µM
SMILES: COc1ccccc1-c1csc(-c2cc(C(=N)N)sc2SC)n1

- Ki [1]: 120 µM
SMILES: CSc1sc(C(=N)N)cc1-c1nc(-c2ccnc(Cl)c2)cs1

- Ki [2]: 1.9 µM
- Ki (Plasminogen): 6.9 µM
- Ki (Prothrombin): > 30 µM
- Ki [1]: 115 µM
- Ki (Serine protease 1): 0.86 µM
SMILES: COc1cccc(-c2csc(-c3cc(C(=N)N)sc3SC)n2)c1

- Ki [1]: 108 µM
SMILES: CSc1sc(C(=N)N)cc1-c1nc(-c2ccc3c(c2)OCCO3)cs1

- Ki [1]: 100 µM
SMILES: CSc1sc(C(=N)N)cc1-c1nc(-c2ccc3c(c2)OCCCO3)cs1

- Ki [1]: 99 µM
SMILES: CSc1sc(C(=N)N)cc1-c1nc(-c2ccc(Cl)cc2)cs1

- Ki [1]: 94 µM
SMILES: CSc1sc(C(=N)N)cc1-c1nc(-c2ccc(C)cc2)cs1

- Ki [1]: 94 µM
SMILES: CSc1sc(C(=N)N)cc1-c1nc(-c2ccc(NS(C)(=O)=O)cc2)cs1

- Ki [2]: 1.7 µM
- Ki (Plasminogen): 10.8 µM
- Ki (Prothrombin): > 29 µM
- Ki [1]: 91 µM
- Ki (Serine protease 1): 0.88 µM
SMILES: CSc1sc(C(=N)N)cc1-c1nc(-c2ccc3c(c2)OCO3)cs1

- Ki [2]: 1.7 µM
- Ki (Plasminogen): 32.1 µM
- Ki (Prothrombin): > 25 µM
- Ki [1]: 86 µM
- Ki (Serine protease 1): 0.93 µM
SMILES: CSc1sc(C(=N)N)cc1-c1nc(-c2cccc(O)c2)cs1

- Ki [1]: 47 µM
SMILES: CSc1sc(C(=N)N)cc1-c1nc(-c2cccc(NC(=O)c3ccc(F)cc3)c2)cs1

- Ki [1]: 44 µM
SMILES: COC(=O)COc1cccc(-c2csc(-c3cc(C(=N)N)sc3SC)n2)c1

- Ki [1]: 44 µM
SMILES: CSc1sc(C(=N)N)cc1-c1nc(-c2ccc(O)c(C)c2)cs1

- Ki [1]: 6 µM
SMILES: CSc1ccc(C(=N)N)s1
